In article PMC10629583, “Specific inhibition of an anticancer target, polo-like kinase 1, by allosterically dismantling its mechanism of substrate recognition” (Proceedings of the National Academy of Sciences of the …, 2023):

Experiments:
Experiment in all cases: PDSP off-target binding screen
Conditions in all cases: for inhibition at 10 µM: read-out: Primary screen AVE(%inhib)±SD; for Ki: read-out: Secondary screen Ki
5-HT1B = molecular target: T1, 5-HT1B (Homo sapiens, UniProt P28222)
T1 construct: NIMH Psychoactive Drug Screening Program (UNC)
Text: (§1) PDSP no. Compound Interactions (Ki, µM)
(§2) 60477 Allopole-A None observed.
(§3) trigger a secondary screen at that receptor.

Sigma 2 = Sigma 2 (Homo sapiens, UniProt Q5BJF2)
Text: as §1, §2, §3

Beta1 = Beta1 (Homo sapiens, UniProt P08588)
Text: as §1, §2, §3

Sigma 1 = Sigma 1 (Homo sapiens, UniProt Q99720)
Text: as §1, §2, §3

5-HT1D = molecular target: T2, 5-HT1D (Homo sapiens, UniProt P28221)
T2 construct: NIMH Psychoactive Drug Screening Program (UNC)
Text: as §1, §2, §3

5-HT6 = molecular target: T3, 5-HT6 (Homo sapiens, UniProt P50406)
T3 construct: NIMH Psychoactive Drug Screening Program (UNC)
Text: as §1, §2, §3

H2 = H2 (Homo sapiens, UniProt P25021)
Text: as §1, §2, §3

Beta2 = Beta2 (Homo sapiens, UniProt P07550)
Text: as §1, §2, §3

M5 = molecular target: T4, M5 (Homo sapiens, UniProt P08912)
T4 sequence (P08912 1-532): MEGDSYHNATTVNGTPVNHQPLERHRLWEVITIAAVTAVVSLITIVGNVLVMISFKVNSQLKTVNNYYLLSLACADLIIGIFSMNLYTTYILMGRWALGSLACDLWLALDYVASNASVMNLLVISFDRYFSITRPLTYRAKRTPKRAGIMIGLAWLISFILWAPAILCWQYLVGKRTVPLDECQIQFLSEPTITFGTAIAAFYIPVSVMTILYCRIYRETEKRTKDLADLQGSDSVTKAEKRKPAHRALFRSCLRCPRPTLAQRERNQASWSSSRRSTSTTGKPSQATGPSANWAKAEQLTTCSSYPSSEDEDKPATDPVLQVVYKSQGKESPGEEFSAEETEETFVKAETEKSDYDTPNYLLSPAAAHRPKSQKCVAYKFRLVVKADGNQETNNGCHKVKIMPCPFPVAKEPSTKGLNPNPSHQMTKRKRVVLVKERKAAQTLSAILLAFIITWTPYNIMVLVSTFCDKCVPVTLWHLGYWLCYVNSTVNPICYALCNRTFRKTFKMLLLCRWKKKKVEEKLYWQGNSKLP
Text: as §1, §2, §3

5-HT7A = 5-HT7A (Homo sapiens, UniProt P34969)
Text: as §1, §2, §3

D4 = molecular target: T5, D4 (Homo sapiens, UniProt P21917)
T5 sequence (P21917 1-419): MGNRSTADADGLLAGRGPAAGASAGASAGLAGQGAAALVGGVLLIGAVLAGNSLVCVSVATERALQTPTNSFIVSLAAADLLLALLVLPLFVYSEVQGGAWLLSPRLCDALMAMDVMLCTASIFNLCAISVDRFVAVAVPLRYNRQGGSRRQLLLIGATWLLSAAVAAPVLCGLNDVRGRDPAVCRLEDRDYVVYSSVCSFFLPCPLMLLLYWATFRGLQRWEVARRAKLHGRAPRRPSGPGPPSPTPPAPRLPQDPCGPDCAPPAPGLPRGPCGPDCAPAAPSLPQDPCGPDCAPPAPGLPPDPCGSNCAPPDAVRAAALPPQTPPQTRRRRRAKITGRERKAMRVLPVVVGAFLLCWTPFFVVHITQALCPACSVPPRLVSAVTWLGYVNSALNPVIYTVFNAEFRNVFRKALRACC
Text: as §1, §2, §3

Alpha2A = molecular target: T6, Alpha2A (Homo sapiens, UniProt P08913)
T6 sequence (P08913 1-465): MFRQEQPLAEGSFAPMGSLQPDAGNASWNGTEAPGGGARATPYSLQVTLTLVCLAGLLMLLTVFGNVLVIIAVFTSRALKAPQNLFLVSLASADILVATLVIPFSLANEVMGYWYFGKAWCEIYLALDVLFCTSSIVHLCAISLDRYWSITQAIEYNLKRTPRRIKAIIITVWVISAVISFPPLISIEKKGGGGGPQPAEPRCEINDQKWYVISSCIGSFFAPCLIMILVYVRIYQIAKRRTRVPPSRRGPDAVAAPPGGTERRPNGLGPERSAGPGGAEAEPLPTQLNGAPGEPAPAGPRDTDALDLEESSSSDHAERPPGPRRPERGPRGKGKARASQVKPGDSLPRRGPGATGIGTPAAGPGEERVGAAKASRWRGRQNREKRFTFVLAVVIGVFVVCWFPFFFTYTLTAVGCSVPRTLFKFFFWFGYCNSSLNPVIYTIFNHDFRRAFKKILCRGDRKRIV
Text: as §1, §2, §3

5-HT1A = molecular target: T7, 5-HT1A (Homo sapiens, UniProt P08908)
T7 construct: NIMH Psychoactive Drug Screening Program (UNC)
T7 sequence (P08908 1-422): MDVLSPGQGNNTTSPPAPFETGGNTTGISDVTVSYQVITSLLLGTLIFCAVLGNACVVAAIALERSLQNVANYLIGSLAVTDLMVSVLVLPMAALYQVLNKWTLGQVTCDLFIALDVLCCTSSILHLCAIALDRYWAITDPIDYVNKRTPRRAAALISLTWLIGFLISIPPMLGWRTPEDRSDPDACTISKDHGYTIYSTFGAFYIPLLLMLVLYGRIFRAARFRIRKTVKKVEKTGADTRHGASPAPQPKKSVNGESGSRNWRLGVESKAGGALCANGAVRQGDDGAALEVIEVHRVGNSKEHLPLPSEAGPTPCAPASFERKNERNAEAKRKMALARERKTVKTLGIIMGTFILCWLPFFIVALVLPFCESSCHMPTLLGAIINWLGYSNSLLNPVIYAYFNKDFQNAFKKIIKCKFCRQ
Text: as §1, §2, §3

T3 sequence (P50406 whole entry): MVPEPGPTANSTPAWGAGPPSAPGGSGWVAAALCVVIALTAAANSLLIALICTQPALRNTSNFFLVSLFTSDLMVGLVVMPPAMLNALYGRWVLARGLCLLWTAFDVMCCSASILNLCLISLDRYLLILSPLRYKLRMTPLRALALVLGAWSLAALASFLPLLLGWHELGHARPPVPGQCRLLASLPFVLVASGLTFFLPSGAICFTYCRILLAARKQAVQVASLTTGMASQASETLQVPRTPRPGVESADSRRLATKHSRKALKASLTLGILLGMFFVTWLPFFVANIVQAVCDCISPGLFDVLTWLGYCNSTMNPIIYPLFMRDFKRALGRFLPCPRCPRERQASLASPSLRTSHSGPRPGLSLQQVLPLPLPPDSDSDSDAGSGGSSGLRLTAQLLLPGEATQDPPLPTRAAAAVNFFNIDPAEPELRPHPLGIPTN
T2 sequence (P28221 whole entry): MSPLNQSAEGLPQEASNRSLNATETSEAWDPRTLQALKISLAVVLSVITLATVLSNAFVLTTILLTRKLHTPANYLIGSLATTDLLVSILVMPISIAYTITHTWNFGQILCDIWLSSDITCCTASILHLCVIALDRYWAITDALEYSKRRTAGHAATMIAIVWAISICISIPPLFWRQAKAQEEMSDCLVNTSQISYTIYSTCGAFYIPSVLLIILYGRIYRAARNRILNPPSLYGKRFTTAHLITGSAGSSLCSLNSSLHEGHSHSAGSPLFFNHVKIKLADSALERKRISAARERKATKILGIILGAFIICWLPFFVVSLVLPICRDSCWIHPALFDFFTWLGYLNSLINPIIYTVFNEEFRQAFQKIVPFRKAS
5-HT7A, sequence (P34969 1-445 isoform P34969-2): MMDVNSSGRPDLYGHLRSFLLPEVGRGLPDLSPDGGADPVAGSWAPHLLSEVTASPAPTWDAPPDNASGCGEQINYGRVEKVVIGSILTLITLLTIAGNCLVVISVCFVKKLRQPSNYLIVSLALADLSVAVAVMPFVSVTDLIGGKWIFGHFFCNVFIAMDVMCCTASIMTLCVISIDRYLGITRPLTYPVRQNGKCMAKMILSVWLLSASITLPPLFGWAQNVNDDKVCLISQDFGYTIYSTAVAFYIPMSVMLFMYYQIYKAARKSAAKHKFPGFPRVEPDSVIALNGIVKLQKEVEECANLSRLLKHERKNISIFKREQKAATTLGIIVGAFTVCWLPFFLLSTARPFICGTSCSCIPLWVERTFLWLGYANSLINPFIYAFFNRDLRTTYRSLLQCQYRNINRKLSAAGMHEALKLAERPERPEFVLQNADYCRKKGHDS
Sigma 1, sequence (Q99720 whole entry): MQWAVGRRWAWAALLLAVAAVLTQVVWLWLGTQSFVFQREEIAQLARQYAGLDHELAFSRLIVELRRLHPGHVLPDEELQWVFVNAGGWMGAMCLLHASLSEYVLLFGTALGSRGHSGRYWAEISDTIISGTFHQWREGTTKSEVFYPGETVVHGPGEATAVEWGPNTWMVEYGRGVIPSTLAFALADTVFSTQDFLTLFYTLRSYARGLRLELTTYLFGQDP
T1 sequence (P28222 whole entry): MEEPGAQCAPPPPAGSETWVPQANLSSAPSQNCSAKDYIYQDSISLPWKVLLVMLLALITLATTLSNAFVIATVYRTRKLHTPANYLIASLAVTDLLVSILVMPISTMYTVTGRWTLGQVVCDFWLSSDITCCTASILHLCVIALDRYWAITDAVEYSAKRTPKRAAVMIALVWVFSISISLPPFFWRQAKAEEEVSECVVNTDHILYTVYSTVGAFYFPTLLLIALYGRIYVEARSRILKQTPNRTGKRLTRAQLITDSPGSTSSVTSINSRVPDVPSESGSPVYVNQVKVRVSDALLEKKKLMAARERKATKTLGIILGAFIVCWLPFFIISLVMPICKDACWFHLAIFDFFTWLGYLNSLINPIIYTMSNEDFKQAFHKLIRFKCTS
Beta2, sequence (P07550 whole entry): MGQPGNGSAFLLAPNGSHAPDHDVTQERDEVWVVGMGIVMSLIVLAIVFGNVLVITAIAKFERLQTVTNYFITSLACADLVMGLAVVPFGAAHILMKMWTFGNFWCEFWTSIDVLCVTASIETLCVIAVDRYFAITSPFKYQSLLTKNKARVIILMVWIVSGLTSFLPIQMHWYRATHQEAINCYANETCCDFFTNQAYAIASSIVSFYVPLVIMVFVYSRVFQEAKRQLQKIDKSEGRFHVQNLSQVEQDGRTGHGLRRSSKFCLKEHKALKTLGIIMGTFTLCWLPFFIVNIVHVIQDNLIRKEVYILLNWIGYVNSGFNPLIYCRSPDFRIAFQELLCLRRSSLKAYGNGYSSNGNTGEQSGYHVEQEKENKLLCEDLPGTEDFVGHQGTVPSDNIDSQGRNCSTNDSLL
H2, sequence (P25021 whole entry): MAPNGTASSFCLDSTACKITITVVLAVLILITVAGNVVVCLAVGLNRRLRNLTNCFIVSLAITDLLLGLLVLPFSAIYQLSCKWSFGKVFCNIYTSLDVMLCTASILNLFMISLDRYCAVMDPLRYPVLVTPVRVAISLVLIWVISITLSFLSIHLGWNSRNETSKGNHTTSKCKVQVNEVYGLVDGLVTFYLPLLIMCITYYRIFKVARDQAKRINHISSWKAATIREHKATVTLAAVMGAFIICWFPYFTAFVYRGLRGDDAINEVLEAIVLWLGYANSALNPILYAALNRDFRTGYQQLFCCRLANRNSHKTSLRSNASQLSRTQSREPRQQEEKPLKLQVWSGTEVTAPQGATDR
Beta1, sequence (P08588 whole entry): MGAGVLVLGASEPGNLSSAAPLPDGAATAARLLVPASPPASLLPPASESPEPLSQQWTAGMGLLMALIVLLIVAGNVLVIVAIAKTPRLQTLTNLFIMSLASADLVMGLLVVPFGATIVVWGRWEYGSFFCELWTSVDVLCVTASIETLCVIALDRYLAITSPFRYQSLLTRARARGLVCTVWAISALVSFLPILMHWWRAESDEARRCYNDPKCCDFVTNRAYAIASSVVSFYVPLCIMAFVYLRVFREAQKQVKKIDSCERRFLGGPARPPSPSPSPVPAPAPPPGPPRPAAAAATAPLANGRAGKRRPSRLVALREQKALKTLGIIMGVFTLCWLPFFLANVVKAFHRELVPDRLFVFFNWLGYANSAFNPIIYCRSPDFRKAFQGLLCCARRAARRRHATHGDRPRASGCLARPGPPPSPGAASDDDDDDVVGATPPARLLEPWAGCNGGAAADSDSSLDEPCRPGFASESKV
Sigma 2, sequence (Q5BJF2 whole entry): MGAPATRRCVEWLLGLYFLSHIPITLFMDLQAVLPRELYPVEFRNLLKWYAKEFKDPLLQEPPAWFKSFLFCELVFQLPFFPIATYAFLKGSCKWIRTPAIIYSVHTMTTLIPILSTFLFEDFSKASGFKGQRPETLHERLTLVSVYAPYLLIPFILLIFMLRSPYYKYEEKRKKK

| Compound | inhibition at 10 µM (5-HT1B) [%] | Ki (5-HT1B) [µM] | inhibition at 10 µM (Sigma 2) [%] | Ki (Sigma 2) [µM] | inhibition at 10 µM (Beta1) [%] | Ki (Beta1) [µM] | inhibition at 10 µM (Sigma 1) [%] | Ki (Sigma 1) [µM] | inhibition at 10 µM (5-HT1D) [%] | Ki (5-HT1D) [µM] | inhibition at 10 µM (5-HT6) [%] | Ki (5-HT6) [µM] | inhibition at 10 µM (H2) [%] | Ki (H2) [µM] | inhibition at 10 µM (Beta2) [%] | Ki (Beta2) [µM] | inhibition at 10 µM (M5) [%] | Ki (M5) [µM] | inhibition at 10 µM (5-HT7A) [%] | Ki (5-HT7A) [µM] | other results |
| --- | --- | --- | --- | --- | --- | --- | --- | --- | --- | --- | --- | --- | --- | --- | --- | --- | --- | --- | --- | --- | --- |
| O=c1c2sc(Cl)cc2n2c(=S)[nH]nc2n1CC1CC1 [Allopole-A] | 17.7 ± 42.2 | > 10 | 40.6 ± 9.5 | > 10 | -6.2 ± 19.4 | > 10 | 2 ± 21.4 | > 10 | 22.5 ± 25.6 | > 10 | -5 ± 11.7 | > 10 | -27.4 ± 17.1 | > 10 | -2.1 ± 19.7 | > 10 | 130 ± 3 | > 10 | -88.1 ± 20.8 | > 10 | inhibition at 10 µM (D4): -24.3 ± 4.4%; Ki (D4): > 10 µM; inhibition at 10 µM (Alpha2A): -6.3 ± 7.9%; Ki (Alpha2A): > 10 µM; inhibition at 10 µM (5-HT1A): -20 ± 27.4%; Ki (5-HT1A): > 10 µM |
| Cn1cnc([N+](=O)[O-])c1Sc1nnc2n(CC3CC3)c(=O)c3sc(Cl)cc3n12 [Allopole] | 60.8 ± 40.9 | > 10 | 40.7 ± 5.8 | > 10 | 67.3 ± 49.1 | > 10 | 41.8 ± 11.9 | > 10 | 32.8 ± 27.1 | > 10 | 21.9 ± 15.6 | > 10 | -16.4 ± 21.5 | > 10 | 0.1 ± 10.6 | > 10 | 95 ± 7.4 | > 10 | 14.9 ± 9.9 | > 10 | inhibition at 10 µM (D4): 12.6 ± 4.9%; Ki (D4): > 10 µM; inhibition at 10 µM (Alpha2A): 9.4 ± 4.6%; Ki (Alpha2A): > 10 µM; inhibition at 10 µM (5-HT1A): -12.8 ± 19.7%; Ki (5-HT1A): > 10 µM |
